Source: the NIST ThermoML archive (doi:10.1016/j.jct.2013.09.006)

Tests used:
[1] = refractive index (Na D-line) (dimensionless); conditions: 101.33 kPa, Liquid, Standard Abbe refractometry
[2] = 101.33 kPa, Liquid; for viscosity: Capillary tube (Ostwald / Ubbelohde) method; for mass density: Vibrating tube method

CCO [ethanol]
Conditions | mass density, 298.15 K [kg/m3] | mass density, 303.15 K [kg/m3] | mass density, 308.15 K [kg/m3] | refractive index, 298.15 K | refractive index, 303.15 K | refractive index, 308.15 K | viscosity, 298.15 K [mPa·s] | viscosity, 303.15 K [mPa·s] | viscosity, 308.15 K [mPa·s]
[1] | – | – | – | 1.3593 | 1.3573 | 1.3556 | – | – | –
[2] | 785.9 | 780.2 | 776.5 | – | – | – | 1.09 | 0.95 | 0.87
